Data from patent US20200354348A1, “SEMISYNTHETIC AURONES AND METHODS OF USE THEREOF” (University of Kentucky Research Foundation, priority 2018, published 2020).
“Also recorded” adds a separate entry of the source.

Columns and labels:
[1] = system: NCI-H226; assay: NCI60 screening; assay type: cell-based; conditions: Homo sapiens, Non-Small Cell Lung Cancer
[2] = system: NCI-H522; assay: NCI60 screening; assay type: cell-based; conditions: Homo sapiens, Non-Small Cell Lung Cancer
[3] = system: HCC-2998; assay: NCI60 screening; assay type: cell-based; conditions: Homo sapiens, Colon Cancer
[4] = system: OVCAR-5; assay: NCI60 screening; assay type: cell-based; conditions: Homo sapiens, Ovarian Cancer
[5] = system: NCI/ADR-RES; assay: NCI60 screening; assay type: cell-based
[6] = system: A498; assay: NCI60 screening; assay type: cell-based; conditions: Homo sapiens, Renal Cancer
[7] = system: HBP-ALL; assay: IC50 in leukemia cell lines; assay type: cell-based; conditions: T-ALL
[8] = system: Loucy; assay: IC50 in leukemia cell lines; assay type: cell-based; conditions: T-ALL
[9] = system: RPMI58402; assay: IC50 in leukemia cell lines; assay type: cell-based; conditions: RPMI58402, T-ALL
[10] = system: REH; assay: IC50 in leukemia cell lines; assay type: cell-based; conditions: Homo sapiens, B-ALL
[11] = system: PC-3 and LS174T cells; assay: Proliferation inhibition, Table 2; assay type: cell-based; conditions: Homo sapiens, read-out: inhibition at 300 nM concentrations
Protocol: (§1) Proliferation inhibition assay. Cancer cells were seeded into 24-well plates at a density of 20,000 cells per well in 1 mL of culture medium and cultured overnight at 37° C. Compounds and the vehicle control DMSO were added to the cells. After 6 days, medium was removed and 100 μL of trypsin was added. Then the cells resuspended in pbs were counted by Vi-CELL XR 2.03 (Beckman Coulter, Inc. USA). The ratio R of the number of viable cells in the compound treatment group to the number of viable cells in DMSO treatment group was taken as relative growth, and the percentage growth inhibition was calculated as: (1−R)*100. For initial testing, compounds were added to the cells at a final concentration 10 μM. Active compounds at 10 μM would be tested at lower concentrations.

[12] = system: PC-3, LS174T, A549, MCF-7, Ovcar-8 and NCI/ADR-RES; assay: Inhibition of various cancer cell lines, five-day treatment (FIG. 2A); assay type: cell-based; conditions: 120 h
Protocol: The inhibitory effects of aurones 4a and 4r were determined on various cancer cell lines including prostate cancer PC-3, colorectal cancer LS174T, lung cancer A549, breast cancer MCF-7, and ovarian cancer Ovcar-8 and NCI/ADR-RES (Tables 1-3, FIG. 2A).
Cell Culture. LS174T (colon cancer cells), PC-3 (prostate cancer cells), MCF-7 (beast) and A549 (lung) were cultured in the medium recommended by American Type Culture Collection at 37° C. with 5% CO2 atmosphere in a water jacketed incubator. Ovcar-8 and NCI/ADR-RES are gifts from Dr. Markos Leggas. Alpha-tubulin antibodies, TRITC-conjugated anti-rabbit antibody.
as §1, with “After 6 days, medium was removed and 100 μL of trypsin was added.” left out

[13] = system: Myc-induced T-ALL; assay: Anti-leukemia activity in the zebrafish model; assay type: in vivo
Protocol: Rag2:Myc-GFP zebrafish at 21 days of age were treated with DMSO, Aurone 4a, or 4r in 1.5 mL fish system water in 12-well plates. Zebrafish were treated with compound for 2 days, removed from drug for 1 day, and treated for two more days in fresh compound. Animals were imaged at the start and end of treatment using a fluorescence-equipped dissecting microscope at 350 ms exposure. The GFP image was overlaid onto the bright-field image of each animal in Photoshop, and the percent change in leukemia burden was calculated by normalizing the GFP+ area to the total area of the animal in ImageJ.

[14] = system: tubulin; assay: In vitro tubulin polymerization assay; assay type: biochemical; conditions: 5 μM
Protocol: In vitro tubulin polymerization assay. The in vitro tubulin polymerization assay was performed by referring tubulin manufacturer's protocol. Briefly, tubulin powder (Cytoskeleton Inc. USA) was dissolved in cold buffer [100 mM PIPES (pH 6.9), 2 mM MgCl2, 1 mM GTP, and 5% glycerol] on ice. Then aliquots (80 μL, 3.75 μg/μL) of the obtained tubulin solution were divided into the wells of a 96-well half-area plate (Corning, USA). After adding DMSO or testing compounds, the plate was mounted to a Spectra MR™ microplate spectrophotometer equipped with a thermal controller allowing to adjust the temperature to 37° C. (DYNEX Technologies Limited, USA). Readings at 350 nm were recorded every 30 s for 1 hour.

[15] = system: HEK193T cells; assay: In vivo microtubule assembly assay in cells; assay type: cell-based
Protocol: In vivo microtubule assembly assay. The amount of insoluble polymerized microtubules and soluble tubulin dimers in cells after exposure to compounds were detected following the method by Blagosklommy et al. (Cancer research 55, 4623-4626 (1995). Cells were seeded in 6-well plate at 50% confluency and cultured overnight. DMSO or compounds were added and the cells were incubated for additional 6 hours. The medium was removed and cells were washed with PBS three times followed by addition of lysis buffer [20 mM Tris-HCl (pH 6.8), 1 mM MgCl2, 2 mM EGTA, 20 μg/mL aprotinin, 20 μg/mL leupeptin, 1 mM PMSF, 1 mM orthovanadate, and 0.5% NP40]. The lysates were centrifuged at 12000 g for 10 min to obtain supernatants and pellets, where were mixed with loading buffer and boiled. Then standard western blot analysis against β-tubulin was performed as described by our previous work. (ACS Chem Biol 8, 796-803, doi:10.1021/cb3005353 (2013)).

[16] = system: Cdc2 (CDK1); assay: Cdc2 (CDK1) phosphorylation (FIG. 7B); assay type: cell-based
[17] = system: LS174T colon and PC3 prostate cancer cells; assay: Combination with CDK inhibitor R03306, proliferation; assay type: cell-based
[18] = system: PC-3, LS174T and HEK293T cells; assay: Cell morphology; assay type: cell-based; conditions: 300 nM, 6 h

CCn1cc(/C=C2\Oc3cc(OCC#N)ccc3C2=O)c2cc(OC)ccc21 [Aurone 4a, (Z)-2-((2-((1-Ethyl-5-methoxy-1H-indol-3-yl)methylene)-3-oxo-2,3-dihydrobenzofuran-6-yl)oxy)acetonitrile]
GI50 [1]: 57400 nM | GI50 [2]: 3130 nM | GI50 [3]: 3440 nM | GI50 [4]: 2520 nM | cytotoxicity against multidrug-resistant cell line ([5]; NCI/ADR-RES): potent cytotoxicity | substrate of P-glycoprotein ([5]; inferred from NCI/ADR-RES cells expressing P-glycoprotein): not likely a substrate of P-glycoprotein | GI50 [6]: 10300 nM | IC50 [7]: 94 nM | IC50 [8]: 334 nM | IC50 [9]: 301 nM | IC50 [10]: 287 nM | inhibition at 0.3 µM [11]: > 90% | IC50 [12]: 50 to 300 nM | gross toxicity on zebrafish [13]: no gross toxicity was observed | inhibition of Myc-induced T-ALL ([13]; 5 days): blocked the progress of T-ALL; also recorded: significant inhibition of Myc-induced T-ALL | decrease in leukemia burden ([13]; percent change over treatment, p=0.0011 vs DMSO): 45.58% | tubulin polymerization in vitro [14]: inhibits tubulin polymerization | tubulin polymerization in cells [15]: decreased tubulin polymerization | Cdc2 (CDK1) phosphorylation at tyrosine 15 [16]: decreasing phosphorylation at tyrosine 15 | combination effect with R03306 on proliferation [17]: synergistic effects | cell morphology [18]: Cell morphologies were changed
